{"source": "patent US20200318165A1", "about": "“Rapid Identification of Microorganisms” (Board of Regents of the Nevada System of Higher Education, …, priority 2015, published 2020)", "key": {"[1]": {"experiment": "Fluorescence of the probe itself without bacteria", "type": "physicochemical", "settings": "excitation of 568 nm laser", "source_text": "Methods were developed to distinguish different species of live bacteria by functionalization of C60 with RNA oligonucleotides hybridized with reporter compounds. The signature RNA oligonucleotides are designed in accordance with the signature information on 16s ribosome RNA, which is unique to each species (Reischl et al., Clin Chem 52, 1985-1987 (2006) and Dresios et al., Journal of molecular biology 345, 681-693 (2005), each of which is hereby incorporated by reference in its entirety). The strategy to recognize a certain bacteria is shown in FIGS. 20A-20C and operates as follows: • (1) C60 molecules were functionalized with signature RNA oligonucleotides containing signature information (e.g., calling card) of a certain species. The Signature RNA oligonucleotides were typically screened through bioinformatics analysis. • (2) A reporter sequence, which is conjugated to a fluorophore, was hybridized with the signature sequence. The fluorophore was silent while hybridized but fluoresced once released. • (3) The C60 complex penetrated the bacteria and released the reporter if the bacteria contained ribosomal signature information that matches the signature RNA oligonucleotide on the C60 complex. The released reporter sequence emitted a fluorescent signal and was detected while free in the cytoplasm. […]"}, "E. coli": {"test_system": "E. coli", "experiment": "Cellular uptake monitored by Transmission Electron Microscopy", "type": "cell-based", "settings": "5 μg/mL, 30 min, FIG. 3A", "description": "(§1) TEM was used to examine whether the retention of C60-pyrrolidine tris acid was localized within the cytosol. Microorganisms were incubated with C60-pyrrolidine tris acid (5 μg/mL) for 30 min. Cells were pelleted by centrifugation at 5,000 rcf (5 min) and washed 5 times with DI H2O. Microorganisms were fixed in 2.5% glutaraldehyde/PBS solution for 30 min. The cells were then pelleted by centrifugation at 5,000 rcf for 5 min. The cell pellet was placed in fresh 2.5% glutaraldehyde/PBS solution at 4° C. overnight. Next, cell pellets were dehydrated by a series of acetone treatments (30% for 15 min, 50% for 15 min, 70% for 15 min, 90% for 15 min and a final treatment at 100% for 30 min, and repeated 3 times), embedded in resin (2:1 mix of propylene oxide:resin for 1 hour, 1:1 mix of propylene oxide:resin for 1 hour, 1:2 mix of propylene oxide: resin for 1 hour, 100% resin overnight, and change to fresh resin 1 h), incubated for 24 h at 37° C., sectioned (60 nm in thickness), and imaged using a Tecnai 12 TEM.\n(§2) To test the hypothesis that functionalized C60-pyrrolidine tris acid internalizes within the cell, microorganisms were imaged with TEM. Both E. coli and B. subtilis were incubated with C60-pyrrolidine tris acid, washed to remove excess compound, sectioned into slices of 60 nm thickness, and then imaged by TEM. […]"}, "B. subtilis": {"test_system": "B. subtilis", "experiment": "Cellular uptake monitored by Transmission Electron Microscopy", "type": "cell-based", "settings": "5 μg/mL, 30 min, FIG. 3B", "description": "as §1, §2"}}, "data": [{"substance": "C60-pyrrolidine tris acid", "values": [{"measurement": "Autofluorescence", "setting": "[1]", "result": "no autofluorescence"}, {"measurement": "Localization in sectioned cells (TEM)", "setting": "E. coli", "result": "localizes within the cell"}, {"measurement": "Localization in sectioned cells (TEM)", "setting": "B. subtilis", "result": "localizes within the cell"}]}]}
